Data on 20 compounds can be found in patent US12240862B2, “Inhibitors of peptidylarginine deiminases” (Gilead Sciences, Inc., priority 2020, dated 2025).

SMILES strings stand for the structures.

The target of the experiment is T1, human PAD4 (Homo sapiens, UniProt Q9UM07).
T1 construct: human PAD4 (NM_012387), A2P663, was PCR amplified; His-SUMO (N, cleaved yes); made in house; host or cells: E. coli BL21(DE3)
In words: In vitro PAD4 BAEE biochemical assay. The settings on record: human PAD4, BAEE substrate; 5 nM PAD4, 2 mM calcium chloride, 3 mM BAEE; geometric mean of multiple experiments. The procedure, abridged: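 Ammonia generated from BAEE serves as the readout, measured by o-phthalaldehyde after EDTA termination. Final conditions: 5 nM human PAD4 (SUMO tag cleaved), 2 mM CaCl2, 3 mM BAEE, pH 7.6 MOPS buffer, 25 °C for 2 h following a 30-min compound preincubation.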

T1 sequence (Q9UM07 2-663): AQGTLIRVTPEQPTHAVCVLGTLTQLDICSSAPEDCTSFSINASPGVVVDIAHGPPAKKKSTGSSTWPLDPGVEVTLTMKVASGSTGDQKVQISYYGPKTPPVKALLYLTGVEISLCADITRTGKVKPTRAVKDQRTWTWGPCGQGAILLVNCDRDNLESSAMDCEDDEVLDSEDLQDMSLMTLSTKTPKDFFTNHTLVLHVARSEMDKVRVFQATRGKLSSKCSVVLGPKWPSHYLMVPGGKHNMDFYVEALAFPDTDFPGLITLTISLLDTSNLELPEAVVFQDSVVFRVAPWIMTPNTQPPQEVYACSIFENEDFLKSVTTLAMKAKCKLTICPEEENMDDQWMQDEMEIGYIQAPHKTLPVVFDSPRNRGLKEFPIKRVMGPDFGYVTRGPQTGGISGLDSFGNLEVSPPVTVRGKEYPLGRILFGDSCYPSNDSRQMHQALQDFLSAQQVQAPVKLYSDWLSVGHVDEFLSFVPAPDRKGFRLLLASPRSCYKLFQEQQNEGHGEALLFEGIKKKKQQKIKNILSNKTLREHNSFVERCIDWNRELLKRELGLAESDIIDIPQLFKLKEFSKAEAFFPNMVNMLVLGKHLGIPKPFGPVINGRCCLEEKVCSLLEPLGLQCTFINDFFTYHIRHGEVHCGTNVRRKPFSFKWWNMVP

Consider `CCc1ccc2cc(-c3nc4cc(C(=O)N5[C@H]6CC[C@@H]5[C@H](N)C6)cc(OC)n4c3C)[nH]c2n1` [Example 506, [(1~{R},2~{R},4~{S})-2-amino-7-azabicyclo [2.2.1]heptan-7-yl]-[2-(6-ethyl-1~{H}-pyrrolo[2,3-b]pyridin-2-yl)-5-methoxy-3-methylimidazo[1,2-a]pyridin-7-yl]methanone], for which the half-inhibitory concentration (IC50) – broadly, the point on the concentration scale where inhibition reaches its midpoint – was 42300 nM.
The value for `CCc1ccc2cc(-c3nc4cc(C(=O)N5[C@H]6CC[C@@H]5[C@H](N)C6)cc(OC)n4c3C)n(Cc3ccncc3)c2n1` [Example 507, [(1~{R},2~{R},4~{S})-2-amino-7-azabicyclo [2.2.1]heptan-7-yl]-[2-[6-ethyl-1-(pyridin-4-ylmethyl)pyrrolo[2,3-b]pyridin-2-yl]-5-methoxy-3-methylimidazo[1,2-a]pyridin-7-yl]methanone] was 152 nM; that for `CCc1ccc2cc(-c3nc4cc(C(=O)N5[C@H]6CC[C@@H]5[C@H](N)C6)cc(OC)n4c3C)n(CCC(C)(C)C#N)c2n1` [Example 508, 4-[2-[7-[(1~{R},2~{R}, 4~{S})-2-amino-7-azabicyclo[2.2.1]heptane-7-carbonyl]-5-methoxy-3-methylimidazo[1,2-a]pyridin-2-yl]-6-ethylpyrrolo [2,3-b]pyridin-1-yl]-2,2-dimethylbutanenitrile] was 277 nM.
In the case of `CCc1ccc2cc(-c3nc4cc(C(=O)N5[C@H]6CC[C@@H]5[C@H](N)C6)cc(OC)n4c3C)n(CC3CCCC3)c2n1` [Example 509, [(1~{R},2~{R},4~{S})-2-amino-7-azabicyclo [2.2.1]heptan-7-yl]-[2-[1-(cyclopentylmethyl)-6-ethylpyrrolo[2,3-b]pyridin-2-yl]-5-methoxy-3-methylimidazo[1,2-a]pyridin-7-yl]methanone] it was 655 nM.
In the case of `CCc1ccc2cc(-c3nc4cc(C(=O)N5[C@H]6CC[C@@H]5[C@H](N)C6)cc(OC)n4c3C)n(-c3nccs3)c2n1` [Example 510, [(1~{R},2~{R},4~{S})-2-amino-7-azabicyclo [2.2.1]heptan-7-yl]-[2-[6-ethyl-1-(1,3-thiazol-2-yl)pyrrolo[2,3-b]pyridin-2-yl]-5-methoxy-3-methylimidazo[1,2-a]pyridin-7-yl]methanone] it was 17100 nM; in that of `CCc1ccc2cc(-c3nc4cc(C(=O)N5[C@H]6CC[C@@H]5[C@H](N)C6)cc(OC)n4c3C)n(-c3cnc(C)s3)c2n1` [Example 511, [(1~{R},2~{R},4~{S})-2-amino-7-azabicyclo [2.2.1]heptan-7-yl]-[2-[6-ethyl-1-(2-methyl-1,3-thiazol-5-yl)pyrrolo [2,3-b]pyridin-2-yl]-5-methoxy-3-methylimidazo [1,2-a]pyridin-7-yl] methanone], 4680 nM.
As for `CCc1ccc2cc(-c3nc4cc(C(=O)N5[C@H]6CC[C@@H]5[C@H](N)C6)cc(OC)n4c3C)n(-c3ccccc3)c2n1` [Example 512, [(1~{R},2~{R},4~{S})-2-amino-7-azabicyclo [2.2.1]heptan-7-yl]-[2-(6-ethyl-1-phenylpyrrolo [2,3-b]pyridin-2-yl)-5-methoxy-3-methylimidazo [1,2-a]pyridin-7-yl]methanone], the half-maximal inhibitory concentration (IC50) was found to be 17700 nM.
In the case of `CCc1ccc2cc(-c3nc4cc(C(=O)N5[C@H]6CC[C@@H]5[C@H](N)C6)cc(OC)n4c3C)n(Cc3cccnc3)c2n1` [Example 513, [(1~{R},2~{R},4~{S})-2-amino-7-azabicyclo [2.2.1]heptan-7-yl]-[2-[6-ethyl-1-(pyridin-3-ylmethyl)pyrrolo [2,3-b]pyridin-2-yl]-5-methoxy-3-methylimidazo[1,2-a]pyridin-7-yl]methanone] it was 179 nM; in that of `COc1cc(C(=O)N2[C@H]3CC[C@@H]2[C@H](N)C3)cc2nc(-c3cc4ccc(C5CCCCN5C(=O)C(C)(C)C)nc4n3CC3CC3)c(C)n12` (stereo partly drawn) [Example 514, 1-(2-(2-(7-((1R,2R,4S)-2-amino-7-azabicyclo[2.2.1]heptane-7-carbonyl)-5-methoxy-3-methylimidazo[1,2-a]pyridin-2-yl)-1-(cyclopropylmethyl)-1H-pyrrolo[2,3-b]pyridin-6-yl)piperidin-1-yl)-2,2-dimethylpropan-1-one], 741 nM.
The value for `COc1cc(C(=O)N2[C@H]3CC[C@@H]2[C@H](N)C3)cc2nc(-c3cc4ccc(C5CCCCN5C(C)=O)nc4n3CC3CC3)c(C)n12` (some centres unmarked) [Example 515, 1-[2-[2-[7-[(1~{R},2~{R}, 4~{S})-2-amino-7-azabicyclo[2.2.1]heptane-7-carbonyl]-5-methoxy-3-methylimidazo[1,2-a]pyridin-2-yl]-1-(cyclopropylmethyl)pyrrolo[2,3-b]pyridin-6-yl]piperidin-1-yl] ethenone] was 125 nM; that for `COc1cc(C(=O)N2[C@H]3CC[C@@H]2[C@H](N)C3)cc2nc(-c3cc4ccc(C(C)Cc5nnc(C)o5)nc4n3CC3CC3)c(C)n12` (some centres unmarked) [Example 516, [(1~{R},2~{R},4~{S})-2-amino-7-azabicyclo [2.2.1]heptan-7-yl]-[2-[1-(cyclopropylmethyl)-6-[1-(5-methyl-1,3,4-oxadiazol-2-yl)propan-2-yl]pyrrolo[2,3-b]pyridin-2-yl]-5-methoxy-3-methylimidazo[1,2-a]pyridin-7-yl]methanone] was 65.6 nM; that for `COc1cc(C(=O)N2[C@H]3CC[C@@H]2[C@H](N)C3)cc2nc(-c3cc4ccc(C5CCCN(C(=O)C(C)(C)C)C5)nc4n3CC3CC3)c(C)n12` (some centres unmarked) [Example 517, 1-[3-[2-[7-[(1~{R},2~{R}, 4~{S})-2-amino-7-azabicyclo[2.2.1]heptane-7-carbonyl]-5-methoxy-3-methylimidazo[1,2-a]pyridin-2-yl]-1-(cyclopropylmethyl)pyrrolo[2,3-b]pyridin-6-yl]piperidin-1-yl]-2,2-dimethylpropan-1-one] was 618 nM.
The value for `COc1cc(C(=O)N2[C@H]3CC[C@@H]2[C@H](N)C3)cc2nc(-c3cc4ccc(C5CCCN(C(=O)N6CCCC6)C5)nc4n3CC3CC3)c(C)n12` (some centres unmarked) [Example 518, [(1~{R},2~{R},4~{S})-2-amino-7-azabicyclo [2.2.1]heptan-7-yl]-[2-[1-(cyclopropylmethyl)-6-[1-(pyrrolidine-1-carbonyl)piperidin-3-yl]pyrrolo [2,3-b]pyridin-2-yl]-5-methoxy-3-methylimidazo [1,2-a]pyridin-7-yl] methanone] was 344 nM.
`COc1cc(C(=O)N2[C@H]3CC[C@@H]2[C@H](N)C3)cc2nc(-c3cc4ccc(C(C)CC(=O)N5CC(F)(F)C5)nc4n3CC3CC3)c(C)n12` (some centres unmarked) [Example 519, 3-[2-[7-[(1~{R},2~{R}, 4~{S})-2-amino-7-azabicyclo[2.2.1]heptane-7-carbonyl]-5-methoxy-3-methylimidazo[1,2-a]pyridin-2-yl]-1-(cyclopropylmethyl)pyrrolo[2,3-b]pyridin-6-yl]-1-(3,3-difluoroazetidin-1-yl) butan-1-one]: the half-inhibitory concentration (IC50) turned out to be 101 nM.
Regarding `COc1cc(C(=O)N2[C@H]3CC[C@@H]2[C@H](N)C3)cc2nc(-c3cc4ccc(C(C)CC(N)=O)nc4n3CC3CC3)c(C)n12` (some centres unmarked) [Example 520, 3-[2-[7-[(1~{R},2~{R}, 4~{S})-2-amino-7-azabicyclo[2.2.1]heptane-7-carbonyl]-5-methoxy-3-methylimidazo[1,2-a]pyridin-2-yl]-1-(cyclopropylmethyl)pyrrolo[2,3-b]pyridin-6-yl]butanamide], the IC50 stood at 73.8 nM.
On to `COc1cc(C(=O)N2[C@H]3CC[C@@H]2[C@H](N)C3)cc2nc(-c3cc4ccc(C(C)CC(=O)NC(C)(C)C)nc4n3CC3CC3)c(C)n12` (some centres unmarked) [Example 521, 3-[2-[7-[(1~{R},2~{R}, 4~{S})-2-amino-7-azabicyclo[2.2.1]heptane-7-carbonyl]-5-methoxy-3-methylimidazo[1,2-a]pyridin-2-yl]-1-(cyclopropylmethyl)pyrrolo [2,3-b]pyridin-6-yl]-~{N}-~{tert}-butylbutanamide], for which the IC50 worked out at 122 nM.
`COc1cc(C(=O)N2[C@H]3CC[C@@H]2[C@H](N)C3)cc2nc(-c3cc4ccc([C@H](C)CC(=O)N5CCCC5)nc4n3CC3CC3)c(C)n12` [Example 522, (3~{R})-3-[2-[7-[(1~{R},2~{R},4~{S})-2-amino-7-azabicyclo[2.2.1]heptane-7-carbonyl]-5-methoxy-3-methylimidazo [1,2-a]pyridin-2-yl]-1-(cyclopropylmethyl)pyrrolo[2,3-b]pyridin-6-yl]-1-pyrrolidin-1-ylbutan-1-one]: the IC50 was determined as 135 nM.
The value for `COc1cc(C(=O)N2[C@H]3CC[C@@H]2[C@H](N)C3)cc2nc(-c3cc4ccc([C@@H](C)CC(=O)N5CCCC5)nc4n3CC3CC3)c(C)n12` [Example 523, (3~{S})-3-[2-[7-[(1~{R},2~{R},4~{S})-2-amino-7-azabicyclo[2.2.1]heptane-7-carbonyl]-5-methoxy-3-methylimidazo [1,2-a]pyridin-2-yl]-1-(cyclopropylmethyl)pyrrolo[2,3-b]pyridin-6-yl]-1-pyrrolidin-1-ylbutan-1-one] was 59.1 nM.
For the compound `CNC(=O)CC(C)c1ccc2cc(-c3nc4cc(C(=O)N5[C@H]6CC[C@@H]5[C@H](N)C6)cc(OC)n4c3C)n(CC3CC3)c2n1` (some centres unmarked) [Example 524, 3-[2-[7-[(1~{R},2~{R}, 4~{S})-2-amino-7-azabicyclo[2.2.1]heptane-7-carbonyl]-5-methoxy-3-methylimidazo[1,2-a]pyridin-2-yl]-1-(cyclopropylmethyl)pyrrolo [2,3-b]pyridin-6-yl]-~{N}-methylbutanamide], the half-inhibitory concentration (IC50) turned out to be 78.9 nM.
In the case of `COc1cc(C(=O)N2[C@H]3CC[C@@H]2[C@H](N)C3)cc2nc(-c3cc4ccc(C5CCN(C(=O)N6CCCC6)CC5)nc4n3CC3CC3)c(C)n12` [Example 525, [(1~{R},2~{R},4~{S})-2-amino-7-azabicyclo [2.2.1]heptan-7-yl]-[2-[1-(cyclopropylmethyl)-6-[1-(pyrrolidine-1-carbonyl)piperidin-4-yl]pyrrolo [2,3-b]pyridin-2-yl]-5-methoxy-3-methylimidazo [1,2-a]pyridin-7-yl]methanone] it was 228 nM.
